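All cell lines were grown in 96-well plates and treated with compound for 48 hours. Here, GI50 denotes the concentration required for 50% inhibition of growth. TGI marks complete inhibition of growth.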

Test systems include UACC-257 melanoma; TK-10 renal; SR leukemia; PC-3 prostate; NCI-H522 lung; CCRF-CEM leukemia; ACHN renal; IGROV1 ovarian; SW-620 colon; HOP-62 NSCLC.
Holding throughout (test): NCI anticancer screen, dose series, 48 h

For the compound `O=C(Nc1ccc(-n2cc(-c3ccncc3)c(-c3ccc(O)c(Cl)c3)n2)cc1)c1ccc(Cl)c(Cl)c1`, the GI50 in the test with UACC-257 melanoma is greater than 32.5 µM; with TK-10 renal, 1.52 µM; in the test with SR leukemia it was 1.19 µM; with PC-3 prostate, 1.35 µM; with NCI-H522 lung, 0.801 µM; with CCRF-CEM leukemia it was 1.01 µM. The GI50 was 1.34 µM in the test with ACHN renal, greater than 32.5 µM with IGROV1 ovarian, 2.08 µM in the test with SW-620 colon and 2 µM in the test with HOP-62 NSCLC. In addition, the TGI in the test on UACC-257 melanoma, with TK-10 renal, in the test with SR leukemia, in the test on PC-3 prostate, with NCI-H522 lung and with CCRF-CEM leukemia was greater than 32.5 µM in each case. Further, the TGI in the test with ACHN renal, with IGROV1 ovarian, in the test on SW-620 colon and with HOP-62 NSCLC was greater than 32.5 µM in each case.
With `CCN(CC)CCSc1nc2c([N+](=O)[O-])cccc2[nH]1`, the TGI with UACC-257 melanoma, with TK-10 renal, in the test on NCI-H522 lung, in the test on CCRF-CEM leukemia, in the test with IGROV1 ovarian and in the test on SW-620 colon was greater than 100 µM in each case.
In the case of `CCCCCCCCCCCCCCCc1ccc(C(=O)C[n+]2ccccc2)cc1`, the GI50 was 1.7 µM in the test on UACC-257 melanoma; 1.12 µM with TK-10 renal; 1.23 µM in the test with PC-3 prostate; 1.01 µM in the test with ACHN renal; 0.394 µM in the test on SW-620 colon. The TGI came out at 3.51 µM in the test on UACC-257 melanoma; 2.72 µM with TK-10 renal; 3.77 µM in the test with PC-3 prostate; 2.22 µM with ACHN renal; 1.54 µM with SW-620 colon.
For the compound `CNC1=C(C)C(=O)C2=C(C1=O)C(COC(N)=O)C1(OC)C3NC3CN21` (stereo unspecified), the TGI with UACC-257 melanoma was 3.64 µM; in the test on TK-10 renal, 94.1 µM; in the test with SR leukemia it was greater than 100 µM; in the test with PC-3 prostate, 41.8 µM; in the test on NCI-H522 lung, 2.22 µM; in the test with CCRF-CEM leukemia, greater than 100 µM. The TGI was 91.2 µM in the test on IGROV1 ovarian, greater than 100 µM in the test with SW-620 colon and 2.38 µM with HOP-62 NSCLC.
With `N=C(N)c1ccc(-c2ccc(-c3ccccc3)o2)cc1`, the GI50 is 2.21 µM with UACC-257 melanoma; 1.89 µM in the test with TK-10 renal; 1.67 µM in the test with SR leukemia; 2.28 µM with PC-3 prostate; 2.13 µM in the test with CCRF-CEM leukemia; 1.67 µM in the test on ACHN renal. Also, the GI50 in the test with IGROV1 ovarian was 2 µM; in the test on SW-620 colon, 1.72 µM; in the test with HOP-62 NSCLC, 1.98 µM. For the same compound, the TGI was determined as 4.56 µM in the test on UACC-257 melanoma; 3.73 µM with TK-10 renal; 5.29 µM with SR leukemia; 5.97 µM in the test with PC-3 prostate; 5.03 µM in the test with CCRF-CEM leukemia; 3.26 µM in the test on ACHN renal. Moreover, the TGI with IGROV1 ovarian worked out at 4.5 µM; in the test with SW-620 colon, 3.32 µM; in the test on HOP-62 NSCLC, 5.13 µM.
Take `CC(=O)Nc1ccc2c(c1)C(=Nc1ccc(C(=O)O)cc1)c1ccccc1-2`: the TGI with UACC-257 melanoma, with TK-10 renal, with PC-3 prostate, in the test with NCI-H522 lung, in the test on CCRF-CEM leukemia and in the test with ACHN renal was greater than 100 µM throughout. Further, the TGI with IGROV1 ovarian, with SW-620 colon and with HOP-62 NSCLC was greater than 100 µM in each case.
Regarding `Nc1cccc2cc(S(=O)(=O)Nc3ccc(C(=O)O)cc3)ccc12`, the TGI in the test on UACC-257 melanoma, in the test on TK-10 renal, in the test on SR leukemia, with PC-3 prostate, in the test on NCI-H522 lung and with CCRF-CEM leukemia was greater than 100 µM throughout. Moreover, the TGI in the test on ACHN renal, in the test on IGROV1 ovarian, with SW-620 colon and with HOP-62 NSCLC was greater than 100 µM throughout.
In the case of `CSc1nc(NC2OC(CO)C(O)C(O)C2O)c(N)c(=O)n1C` (stereo unspecified), the TGI in the test on UACC-257 melanoma, in the test on NCI-H522 lung, with CCRF-CEM leukemia, in the test with IGROV1 ovarian, with SW-620 colon and in the test with HOP-62 NSCLC was greater than 100 µM in each case.
Regarding `COc1ccc(C2C(Cl)C(=O)N2NC(=O)c2ccc(NC(C)=O)cc2)cc1OC` (stereo unspecified), the TGI in the test on UACC-257 melanoma, in the test on TK-10 renal, with SR leukemia, in the test on NCI-H522 lung, in the test on CCRF-CEM leukemia and in the test on ACHN renal was greater than 100 µM each time. Moreover, the TGI in the test on IGROV1 ovarian, in the test on SW-620 colon and with HOP-62 NSCLC was greater than 100 µM in each case.
On to `NC(=O)OCc1c(O)c2c(c(O)c1COC(N)=O)C(=O)C=CC2=O`, for which the TGI in the test with UACC-257 melanoma, in the test with TK-10 renal, in the test on SR leukemia, in the test with NCI-H522 lung, with CCRF-CEM leukemia and with ACHN renal was greater than 100 µM each time. The TGI in the test with IGROV1 ovarian, with SW-620 colon and in the test on HOP-62 NSCLC was greater than 100 µM in each case.

The values above are taken from PubChem BioAssay (NCI).
